Source: PMC10853020 (Journal of medicinal chemistry, 2023)

Tests used:
h5-HT2CR = molecular target: T1, h5-HT2CR (Homo sapiens, UniProt P28335); experiment: 5-HT-induced Cai^2+ release in h5-HT2CR-CHO cells; format: cell-based; conditions: 1 nM
T1 sequence (P28335 33-458): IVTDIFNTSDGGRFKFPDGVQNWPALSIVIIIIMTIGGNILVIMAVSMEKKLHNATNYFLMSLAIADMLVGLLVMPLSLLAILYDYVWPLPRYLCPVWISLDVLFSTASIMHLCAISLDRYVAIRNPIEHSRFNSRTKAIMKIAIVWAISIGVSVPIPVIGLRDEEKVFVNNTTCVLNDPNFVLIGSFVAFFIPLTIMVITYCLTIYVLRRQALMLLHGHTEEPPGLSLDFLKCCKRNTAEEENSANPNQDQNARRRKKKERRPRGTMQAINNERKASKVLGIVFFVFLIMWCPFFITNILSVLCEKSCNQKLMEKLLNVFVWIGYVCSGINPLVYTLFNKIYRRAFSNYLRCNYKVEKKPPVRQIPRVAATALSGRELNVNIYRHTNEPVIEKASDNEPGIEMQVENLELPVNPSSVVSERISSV

HERG = HERG (Homo sapiens, UniProt Q12809); experiment: NIMH PDSP radioligand binding displacement
σ2 receptor = molecular target: T2, σ2 receptor (Rattus norvegicus, UniProt Q5U3Y7); experiment: NIMH PDSP radioligand binding displacement
T2 sequence (Q5U3Y7 1-176): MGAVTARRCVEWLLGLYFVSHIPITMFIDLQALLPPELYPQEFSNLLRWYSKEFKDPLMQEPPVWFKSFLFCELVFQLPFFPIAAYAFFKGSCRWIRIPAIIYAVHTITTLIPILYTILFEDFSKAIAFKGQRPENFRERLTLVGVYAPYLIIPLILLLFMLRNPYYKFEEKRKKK

male Sprague–Dawley rats = experiment: Novelty-induced; format: in vivo, rat; conditions: 30 mg/kg ip, 30 min prior; vs vehicle; p < 0.0001

Chain of HERG (Q12809 whole entry): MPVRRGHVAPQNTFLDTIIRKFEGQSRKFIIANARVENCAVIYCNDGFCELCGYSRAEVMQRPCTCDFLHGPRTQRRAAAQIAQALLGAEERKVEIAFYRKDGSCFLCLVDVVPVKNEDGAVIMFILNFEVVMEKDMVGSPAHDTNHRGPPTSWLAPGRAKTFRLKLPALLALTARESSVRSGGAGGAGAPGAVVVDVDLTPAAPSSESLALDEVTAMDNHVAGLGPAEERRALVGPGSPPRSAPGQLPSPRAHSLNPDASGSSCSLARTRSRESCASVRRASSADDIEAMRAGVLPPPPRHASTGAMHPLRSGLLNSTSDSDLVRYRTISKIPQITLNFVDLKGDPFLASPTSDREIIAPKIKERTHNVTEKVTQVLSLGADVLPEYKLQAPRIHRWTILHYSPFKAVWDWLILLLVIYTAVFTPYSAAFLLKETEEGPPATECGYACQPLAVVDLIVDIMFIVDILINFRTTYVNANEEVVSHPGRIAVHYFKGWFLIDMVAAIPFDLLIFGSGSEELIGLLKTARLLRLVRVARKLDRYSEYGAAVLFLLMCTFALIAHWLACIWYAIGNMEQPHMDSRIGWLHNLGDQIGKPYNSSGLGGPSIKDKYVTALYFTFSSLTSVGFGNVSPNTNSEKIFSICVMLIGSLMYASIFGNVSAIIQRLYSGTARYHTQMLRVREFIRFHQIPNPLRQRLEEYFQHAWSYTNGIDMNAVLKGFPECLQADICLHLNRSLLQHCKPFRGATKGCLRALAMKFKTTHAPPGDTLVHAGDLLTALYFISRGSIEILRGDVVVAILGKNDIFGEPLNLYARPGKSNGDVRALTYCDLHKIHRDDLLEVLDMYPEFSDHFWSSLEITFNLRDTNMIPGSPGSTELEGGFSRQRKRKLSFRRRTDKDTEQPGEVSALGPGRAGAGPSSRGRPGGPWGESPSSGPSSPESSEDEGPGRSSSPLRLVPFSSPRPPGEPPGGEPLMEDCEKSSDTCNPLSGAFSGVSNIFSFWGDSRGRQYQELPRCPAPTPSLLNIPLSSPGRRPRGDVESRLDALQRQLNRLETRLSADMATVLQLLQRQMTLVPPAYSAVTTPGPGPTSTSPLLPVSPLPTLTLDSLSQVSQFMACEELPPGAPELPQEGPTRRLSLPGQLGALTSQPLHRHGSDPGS

CCCCCCCC/C=C\CCCCCCCC(=O)NCCCO [Compound 8, N-(3-Hydroxypropyl)oleamide]
5-HT2CR PAM activity (h5-HT2CR): potentiated 5-HT-evoked Cai^2+ release

CCCCCCCC/C=C\CCCCCCCC(=O)NC[C@H](O)CO [Compound 10, (S)-N-(2,3-Dihydroxypropyl)oleamide]
5-HT2CR PAM activity (h5-HT2CR): inactive

CCCCCCCC/C=C\CCCCCCCC(=O)NC(CO)CO [Compound 11, N-(1,3-Dihydroxypropan-2-yl)oleamide]
displacement of binding to the hERG potassium channel (HERG): did not displace binding

CCCCCCCC/C=C\CCCCCCCC(=O)NC(CO)(CO)CO [Compound 13, N-(1,3-Dihydroxy-2-(hydroxymethyl)propan-2-yl)oleamide]
Ki (σ2 receptor): 3.6 µM | total ambulations over a 90 min session (male Sprague–Dawley rats): significantly reduced total ambulations vs vehicle

CCCCCCCC/C=C\CCCCCCCC(=O)NCC(OCC)OCC [Compound 14, N-(2,2-Diethoxyethyl)oleamide]
5-HT2CR PAM activity (h5-HT2CR): did not evoke PAM activity
